In US11957687B2 (REGENERON PHARMACEUTICALS, INC., priority 2019, dated 2024):

How the values were obtained:
[1] = biological target: HSD17B13 (Homo sapiens (Human), UniProt Q7Z5P4); test: HSD17B13 enzymatic inhibition assay (150 nM or 50 nM HSD17B13); type: biochemical; conditions: 50 nM HSD17B13; read-out: Inhibition of 50 nM of HSD17B13 IC50
[2] = biological target: HSD17B1 (Homo sapiens (Human), UniProt P14061); test: HSD17B1 enzymatic blocking assay; type: biochemical; conditions: 25 μM Estradiol, 500 μM NAD; read-out: Inhibition of HSD17B1 IC50
Procedure, shortened: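 Activity followed as NADH formed on estradiol oxidation, read by NADH-Glo luminescence after 1 h detection in the dark at room temperature. Compounds preincubated with enzyme 30 min at room temperature; 0.5% DMSO and no-substrate controls. IC50 fitted from luminescence.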

[3] = biological target: HSD17B2 (Homo sapiens (Human), UniProt P37059); test: HSD17B2 enzymatic blocking assay; type: biochemical; conditions: 1.8 μM Estradiol, 650 μM NAD; read-out: Inhibition of HSD17B2 IC50
Procedure, shortened: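 Mammalian-expressed enzyme at 2 ng/μL in 50 mM Tris-HCl pH 7.5 with detergents/BSA, preincubated 15 min at 20° C. with compound (10-point titration). Reaction with 1.8 μM estradiol and 650 μM NAD ran 45 min at 20° C.; NADH measured by NADH-Glo luminescence and IC50 derived.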

[4] = biological target: HSD17B4 (Homo sapiens (Human), UniProt P51659); test: HSD17B4 enzymatic blocking assay; type: biochemical; conditions: 23.46 μM Estradiol, 1500 μM NAD; read-out: Inhibition of HSD17B4 IC50
Protocol: To screen compounds of the disclosure for their ability to block HSD17B4 function, an enzymatic blocking assay was performed. For the assay, HSD17B4 activity was measured by detecting NADH formation from oxidation of Estradiol using a NADH Glo luminescence assay (Promega, #Cat. No. G9062). Compounds of the disclosure were evaluated in a dose titration assay where the compounds were titrated at 10-point dose curve using an Echo-555 liquid handling dispenser. HSD17B4 (SEQ ID NO: 4, expressed in mammalian cells) was added at a final concentration of 2.5 ng/μL in a buffer containing 50 mM Tris-HCl, pH 7.5, Pluronic F-127 0.05%, Tween20 0.01%, BSA 0.01%, into a low volume white 384-well assay plate. Compounds were incubated with the enzyme for 15 min at 20° C. The assay reaction was then initiated by addition of 23.46 μM Estradiol substrate (Sigma, catalog #E2758-250MG, CAS: 50-28-2) and 1500 μM NAD co-factor, and the reaction mixture was incubated for 45 min at 20° C. DMSO at a concentration of 0.5% was used as a negative control and a ‘no substrate’ control was used a positive control in the assay. Detection reagent was then added as per manufacturer's instructions, and the plate was subsequently incubated in the dark for 1 hour at room temperature, NADH generated was detected in the luminescence mode on the Envision Perkin Elmer plate reader. The IC50 values were determined using Dotmatics analysis software.

[5] = biological target: HSD17B10 (Homo sapiens (Human), UniProt Q99714); test: HSD17B10 enzymatic blocking assay; type: biochemical; conditions: 25 μM Estradiol, 500 μM NAD; read-out: Inhibition of HSD17B10 IC50
Protocol: To screen compounds of the disclosure for their ability to block HSD17B10 function, an enzymatic blocking assay was performed. For the assay, HSD17B10 activity was measured by detecting NADH formation from oxidation of Estradiol using a NADH Glo luminescence assay (Promega, #Cat. No. G9062). Compounds of the disclosure were evaluated in a dose titration assay where the compounds were titrated at 10-point dose curve using an Echo-555 liquid handling dispenser. HSD17B10 (Seq. ID NO: 5, expressed in mammalian cells) was added at a final concentration of 31.25 ng/well in a buffer containing 0.2M Tris-HCl, pH 7.5, into a low volume white 384-well assay plate. Compounds were incubated with the enzyme for 30 minutes at room temperature. The assay reaction was then initiated by addition of 25 μM Estradiol substrate (Sigma, catalog #E2758-250MG, CAS: 50-28-2) and 500 μM NAD co-factor, and the reaction mixture was incubated for 3 hours at room temperature. DMSO at a concentration of 0.5% was used as a negative control and a ‘no substrate’ control was used a positive control in the assay. Detection reagent was then added as per manufacturer's instructions, and the plate was subsequently incubated in the dark for 1 hour at room temperature, NADH generated was detected in the luminescence mode on the Envision Perkin Elmer plate reader. The IC50 values were determined using Dotmatics analysis software.

[6] = Microsome stability assay, human liver microsomes; type: in vitro ADME; conditions: 1 μM compound, 0.5 mg/mL microsomal protein
Procedure, shortened: (§1)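 Compound at 1 μM incubated at 37° C with pooled human or mouse liver microsomes (0.5 mg/mL protein) plus NADPH regenerating system, sampled at 0–60 min; a 60-min no-NADPH incubation also included. Single replicate; LC/MS/MS disappearance from analyte/internal standard peak area ratios, without standard curve.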

[7] = Microsome stability assay, mouse liver microsomes; type: in vitro ADME; conditions: 1 μM compound, 0.5 mg/mL microsomal protein; for microsomal CLint at 1 μM / half-life at 1 μM / microsomal CLint at 1 h, 1 µM / half-life at 1 h, 1 µM: mouse, mouse liver microsomes, pooled, NADPH, 37° C.; for microsomal CLint at 1 μM / microsomal CLint at 1 h, 1 µM: read-out: Microsome Stability Mouse liver microsomes Cl; for half-life at 1 μM / half-life at 1 h, 1 µM: read-out: Microsome Stability Mouse liver microsomes T½
Procedure, shortened: as §1

[8] = human, human liver microsomes, pooled, NADPH, 37° C., read-out: Microsome Stability Human liver microsomes Cl
[9] = human, human liver microsomes, pooled, NADPH, 37° C., read-out: Microsome Stability Human liver microsomes T½

Chain of HSD17B4 (P51659 other isoform, or with tags, fused parts or gaps): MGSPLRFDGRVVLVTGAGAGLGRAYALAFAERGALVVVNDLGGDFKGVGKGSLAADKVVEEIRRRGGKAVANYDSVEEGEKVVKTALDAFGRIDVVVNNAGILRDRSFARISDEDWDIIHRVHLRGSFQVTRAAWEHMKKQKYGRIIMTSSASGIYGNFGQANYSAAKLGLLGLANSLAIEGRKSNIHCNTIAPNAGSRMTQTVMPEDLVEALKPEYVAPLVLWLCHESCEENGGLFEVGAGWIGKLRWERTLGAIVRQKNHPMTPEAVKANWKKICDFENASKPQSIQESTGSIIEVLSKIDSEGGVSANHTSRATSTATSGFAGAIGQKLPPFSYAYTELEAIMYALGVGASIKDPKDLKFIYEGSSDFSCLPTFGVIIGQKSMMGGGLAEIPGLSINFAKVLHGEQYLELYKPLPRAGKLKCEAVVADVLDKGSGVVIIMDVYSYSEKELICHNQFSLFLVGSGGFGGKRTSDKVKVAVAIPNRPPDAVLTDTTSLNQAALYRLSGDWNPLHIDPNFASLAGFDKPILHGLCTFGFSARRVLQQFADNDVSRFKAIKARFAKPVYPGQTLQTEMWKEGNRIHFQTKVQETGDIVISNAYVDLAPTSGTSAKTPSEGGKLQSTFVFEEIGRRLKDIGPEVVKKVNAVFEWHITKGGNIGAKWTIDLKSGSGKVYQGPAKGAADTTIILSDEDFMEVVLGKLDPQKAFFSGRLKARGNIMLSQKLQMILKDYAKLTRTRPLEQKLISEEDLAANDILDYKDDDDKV
Chain of HSD17B13 (Q7Z5P4 other isoform, or with tags, fused parts or gaps): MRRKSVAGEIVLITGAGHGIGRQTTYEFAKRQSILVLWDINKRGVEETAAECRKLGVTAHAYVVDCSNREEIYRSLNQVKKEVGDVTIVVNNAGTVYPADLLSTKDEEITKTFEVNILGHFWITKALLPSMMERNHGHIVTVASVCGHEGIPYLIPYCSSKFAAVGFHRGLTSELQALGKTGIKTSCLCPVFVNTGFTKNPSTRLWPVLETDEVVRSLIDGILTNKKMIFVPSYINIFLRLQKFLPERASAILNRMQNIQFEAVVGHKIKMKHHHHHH
Chain of HSD17B10 (Q99714 other isoform, or with tags, fused parts or gaps): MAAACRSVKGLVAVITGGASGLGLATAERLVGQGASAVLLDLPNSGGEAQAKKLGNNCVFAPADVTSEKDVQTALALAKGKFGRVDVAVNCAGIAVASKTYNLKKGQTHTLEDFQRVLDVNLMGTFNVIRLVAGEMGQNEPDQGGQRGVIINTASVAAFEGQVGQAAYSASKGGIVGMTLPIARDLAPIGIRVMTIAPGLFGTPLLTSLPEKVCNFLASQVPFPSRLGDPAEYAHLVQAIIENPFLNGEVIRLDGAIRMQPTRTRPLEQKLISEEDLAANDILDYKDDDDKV
Chain of HSD17B1 (P14061 other isoform, or with tags, fused parts or gaps): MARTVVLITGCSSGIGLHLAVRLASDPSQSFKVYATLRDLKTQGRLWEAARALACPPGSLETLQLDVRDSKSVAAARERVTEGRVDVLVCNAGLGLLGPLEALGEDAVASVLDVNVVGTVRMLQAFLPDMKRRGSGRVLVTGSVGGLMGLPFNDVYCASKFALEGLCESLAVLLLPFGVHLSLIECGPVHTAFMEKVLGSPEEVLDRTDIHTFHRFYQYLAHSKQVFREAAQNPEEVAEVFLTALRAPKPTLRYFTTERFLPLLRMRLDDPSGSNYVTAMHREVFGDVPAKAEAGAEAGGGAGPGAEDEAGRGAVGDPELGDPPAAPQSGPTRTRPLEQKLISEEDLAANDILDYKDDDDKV
Chain of HSD17B2 (P37059 other isoform, or with tags, fused parts or gaps): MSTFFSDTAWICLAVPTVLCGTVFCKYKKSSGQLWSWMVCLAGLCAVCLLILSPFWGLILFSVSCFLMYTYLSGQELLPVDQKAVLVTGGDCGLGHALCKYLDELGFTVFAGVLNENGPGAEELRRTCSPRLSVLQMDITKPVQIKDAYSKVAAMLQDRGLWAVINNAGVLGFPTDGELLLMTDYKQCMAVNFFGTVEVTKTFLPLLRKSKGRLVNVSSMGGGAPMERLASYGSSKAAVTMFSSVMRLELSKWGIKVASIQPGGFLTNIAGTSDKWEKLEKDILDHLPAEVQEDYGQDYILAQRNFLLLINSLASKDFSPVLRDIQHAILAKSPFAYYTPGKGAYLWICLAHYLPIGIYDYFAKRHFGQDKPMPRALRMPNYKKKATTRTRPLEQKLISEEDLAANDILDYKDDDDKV

Structure (SMILES)	IC50 [1] [µM]	IC50 [2] [µM]	IC50 [3] [µM]	IC50 [4] [µM]	IC50 [5] [µM]	Microsome Stability Human liver microsomes % Remaining @60 min [6] [%]	microsomal CLint at 1 μM [6, 8] [µL/min/mg]	half-life at 1 μM [6, 9] [h]	Microsome Stability Mouse liver microsomes % Remaining @60 min [7] [%]	microsomal CLint at 1 μM [7] [µL/min/mg]	half-life at 1 μM [7] [h]	microsomal CLint at 1 h, 1 µM [7] [µL/min/mg]	half-life at 1 h, 1 µM [7] [h]	microsomal CLint at 1 h, 1 µM [6, 8] [µL/min/mg]	half-life at 1 h, 1 µM [6, 9] [min]
O=C(NC1c2ccc(Cl)cc2Oc2cc(Cl)ccc21)c1ccc(C(F)(F)F)[nH]c1=O [Compound 50, N-(3,6-dichloro-9H-xanthen-9-yl)-2-oxo-6-(trifluoromethyl)-1,2-dihydropyridine-3-carboxamide]	0.12	4.22	5.16	> 100	> 30	101.00	< 9.6	> 2.42	97.70	< 9.6	> 2.42				
O=C(NC(c1ccccc1)c1ccc(-c2cccnc2)cc1)c1ccc(C(F)(F)F)[nH]c1=O (stereo not drawn) [Compound 93, N-(phenyl(4-(pyridin-3-yl)phenyl)methyl)-2-oxo-6-(trifluoromethyl)-1,2-dihydropyridine-3-carboxamide]	0.6	15.6	10.7	66.2	> 30										
Cc1ccc(C(NC(=O)c2cc(C)c(C(F)(F)F)[nH]c2=O)c2ccc(C)cc2)cc1 [Compound 115, N-(di-p-tolylmethyl)-5-methyl-2-oxo-6-(trifluoromethyl)-1,2-dihydropyridine-3-carboxamide]	0.45	11.2	11	> 100	> 30										
CCc1ccc2c(c1)Oc1ccccc1C2NC(=O)c1ccc(C(F)(F)F)[nH]c1=O (stereo not drawn) [Compound 140, N-(3-ethyl-9H-xanthen-9-yl)-2-oxo-6-(trifluoromethyl)-1,2-dihydropyridine-3-carboxamide]	0.2	3.53	10.7	54.2	> 30										
Cc1ccc2c(c1)Oc1ccccc1C2NC(=O)c1c(C)cc(C(F)(F)F)[nH]c1=O (stereo not drawn) [Compound 198, 4-methyl-N-(3-methyl-9H-xanthen-9-yl)-2-oxo-6-(trifluoromethyl)-1,2-dihydropyridine-3-carboxamide]	0.4	> 30	> 100	> 100	> 30										
Nc1cccc2c1CCCC2NC(=O)c1ccc(C(F)(F)F)[nH]c1=O (stereo not drawn) [Compound 533, N-(5-amino-1,2,3,4-tetrahydronaphthalen-1-yl)-2-oxo-6-(trifluoromethyl)-1,2-dihydropyridine-3-carboxamide]	0.68	> 30	72.7			88.90	< 9.6	> 2.42	90.20	< 9.6	> 2.42				

Now from value to compound:

IC50 [1] [µM]	IC50 [2] [µM]	IC50 [3] [µM]	IC50 [4] [µM]	IC50 [5] [µM]	Microsome Stability Human liver microsomes % Remaining @60 min [6] [%]	microsomal CLint at 1 μM [6, 8] [µL/min/mg]	half-life at 1 μM [6, 9] [h]	Microsome Stability Mouse liver microsomes % Remaining @60 min [7] [%]	microsomal CLint at 1 μM [7] [µL/min/mg]	half-life at 1 μM [7] [h]	microsomal CLint at 1 h, 1 µM [7] [µL/min/mg]	half-life at 1 h, 1 µM [7] [h]	microsomal CLint at 1 h, 1 µM [6, 8] [µL/min/mg]	half-life at 1 h, 1 µM [6, 9] [min]	Structure (SMILES)
0.16	3.9	6.33	> 100	> 30											O=C(NC1c2ccccc2Oc2cc(Cl)ccc21)c1ccc(C(F)(F)F)[nH]c1=O (stereo not drawn) [Compound 15A, N-(3-chloro-9H-xanthen-9-yl)-2-oxo-6-(trifluoromethyl)-1,2-dihydropyridine-3-carboxamide]
0.31	3.69	10.7	47.1	> 30											Cc1ccc2c(c1)Oc1cccc(C)c1C2NC(=O)c1ccc(C(F)(F)F)[nH]c1=O (stereo not drawn) [Compound 53, N-(1,6-dimethyl-9H-xanthen-9-yl)-2-oxo-6-(trifluoromethyl)-1,2-dihydropyridine-3-carboxamide]
0.18	4.65	9.15	> 100	> 30											Cc1ccc2c(c1)Oc1ccccc1C2NC(=O)c1ccc(C(F)(F)F)[nH]c1=O (stereo not drawn) [Compound 55, N-(3-methyl-9H-xanthen-9-yl)-2-oxo-6-(trifluoromethyl)-1,2-dihydropyridine-3-carboxamide]
0.36	3.65	8.91	48.7	> 30											O=C(NC(c1ccccc1)c1ccc2c(c1)CCCC2)c1ccc(C(F)(F)F)[nH]c1=O (stereo not drawn) [Compound 80, N-(phenyl(5,6,7,8-tetrahydronaphthalen-2-yl)methyl)-2-oxo-6-(trifluoromethyl)-1,2-dihydropyridine-3-carboxamide]
	11.3	18.8	96.6	> 30											O=C(NC(c1ccccc1)c1ccc2c(c1)COC2)c1ccc(C(F)(F)F)[nH]c1=O (stereo not drawn) [Compound 94, N-((1,3-dihydroisobenzofuran-5-yl)(phenyl)methyl)-2-oxo-6-(trifluoromethyl)-1,2-dihydropyridine-3-carboxamide]
0.36	3.62	7.3	58.2	> 30											O=C(NC1c2ccccc2Oc2cc(CC(F)(F)F)ccc21)c1ccc(C(F)(F)F)[nH]c1=O (stereo not drawn) [Compound 141, 2-oxo-N-(3-(2,2,2-trifluoroethyl)-9H-xanthen-9-yl)-6-(trifluoromethyl)-1,2-dihydropyridine-3-carboxamide]
2.19	> 30	11.2			45	26.4	0.875	74			10.2	2.25			Cc1ccc2c(c1)OCCC2NC(=O)c1ccc(C(F)(F)F)[nH]c1=O (stereo not drawn) [Compound 441, N-(7-methylchroman-4-yl)-2-oxo-6-(trifluoromethyl)-1,2-dihydropyridine-3-carboxamide]
0.59	> 30	16.1			1			1.60			140	0.164	203	6.83	Cc1cccc(C(NC(=O)c2ccc(C(F)(F)F)[nH]c2=O)c2ccccc2)c1 (stereo not drawn) [Compound 490, 2-oxo-N-(phenyl(m-tolyl)methyl)-6-(trifluoromethyl)-1,2-dihydropyridine-3-carboxamide]
